Experimental data as given in patent US20250144067A1, “PERSONALIZED STARVATION THERAPY FOR CANCER” (Faeth Therapeutics, Inc., priority 2021, published 2025).
Structures can show the parent of a compound that is named as a salt. Where two headings read alike, the source gives them in different places.

Legend:
[1] = system: NCI-H292 lung cancer cells; assay: FDA drug screening, complete media vs cholesterol-free media with simvastatin (TABLE 2); type: cell-based, human
[2] = system: NCI-H292 lung cancer cells; assay: FDA drug screening, complete media vs cholesterol-free media without statin (TABLE 1); type: cell-based, human
[3] = complete media minus cholesterol-free media + simvastatin (0.04 μM), >0 enhanced anti-cancer activity, about 0 neutral, <0 antagonist
[4] = NCI-H292 cells, cholesterol-free media without statin, FDA drug library screen
[5] = NCI-H292 cells, complete media, FDA drug library screen
[6] = complete vs cholesterol-free media, >0 enhanced anti-cancer activity, about 0 neutral, <0 antagonist
[7] = NCI-H292 cells, FDA drug library screen, cholesterol-free media with simvastatin 0.04 μM
[8] = NCI-H292 cells, FDA drug library screen, complete media
[9] = complete media vs cholesterol-free media + simvastatin (0.04 μM), >0 enhanced anti-cancer activity, about 0 neutral, <0 antagonist
[10] = NCI-H292 cells, drug in cholesterol-free media with simvastatin 0.04 μM
[11] = NCI-H292 cells, drug in complete media
[12] = NCI-H292 cells, cholesterol-free media without statin
[13] = complete vs cholesterol-free media, greater than 0 enhanced anti-cancer activity, about 0 neutral, below 0 antagonists
[14] = NCI-H292 cells, cholesterol-free media with simvastatin 0.04 μM, […]
[15] = NCI-H292 cells, complete media, […]
[16] = complete media minus cholesterol-free media + simvastatin, […]
[17] = complete vs cholesterol-free media, […]
[18] = complete media minus cholesterol-free media + simvastatin, >0 enhanced anti-cancer activity, about 0 neutral, <0 antagonist
[19] = Complete minus Cholesterol-free, greater than 0 enhanced anti-cancer activity, about 0 neutral, below 0 antagonists
[20] = NCI-H292 cells in complete media
[21] = NCI-H292 cells in cholesterol-free media without statin
[22] = complete media vs cholesterol-free media + simvastatin (0.04 μM), […]
[23] = Complete minus Cholesterol-free, […]
[24] = NCI-H292 cells, FDA drug library screen, cholesterol-free media without statin
[25] = Complete minus Cholesterol-free, >0 enhanced anti-cancer activity, about 0 neutral, <0 antagonist
[26] = NCI-H292 cells, cholesterol-free media with simvastatin 0.04 μM, cell growth value in FDA drug screen
[27] = NCI-H292 cells, complete media, cell growth value in FDA drug screen
[28] = NCI-H292 cells, FDA library drug in cholesterol-free media with simvastatin 0.04 μM
[29] = NCI-H292 cells, FDA library drug in complete media
[30] = Complete minus Cholesterol-free, greater than 0 enhanced anti-cancer activity, about 0 neutral, below 0 antagonist

Molecule: CN1CCN(CC(=O)N2c3ccccc3C(=O)Nc3cccnc32)CC1 [Pirenzepine (dihydrochloride)]
- Cholesterol-free media + simvastatin (0.04 μM) ([1]; NCI-H292 cells, cholesterol-free media with simvastatin 0.04 μM, FDA drug library screen (TABLE 2)): 1.293
- Complete Media ([1]; NCI-H292 cells, complete media, FDA drug library screen (TABLE 2)): 1.265
- Difference [1, 3]: −0.03
- Cholesterol-free [2, 4]: 1.465
- Complete [2, 5]: 1.606
- Difference [2, 6]: 0.14

Molecule: O=C(CCC/C=C\C[C@@H]1[C@@H](CC[C@@H](O)CCc2ccccc2)[C@H](O)C[C@@H]1O)OCCCCO[N+](=O)[O-] [Latanoprostene bunod]
- Cholesterol-free media + simvastatin (0.04 μM) [1, 7]: 1.139
- Complete Media [1, 8]: 1.004
- Difference [1, 9]: −0.14
- Cholesterol-free [2, 4]: 0.8229
- Complete [2, 5]: 1.464
- Difference [2, 6]: 0.64

Molecule: CCCCC(CC)COC(=O)CC(C(=O)OCC(CC)CCCC)S(=O)(=O)O (stereo not shown) [Docusate (Sodium)]
- Cholesterol-free media + simvastatin (0.04 μM) [1, 10]: 1.08
- Complete Media [1, 11]: 0.9061
- Difference [1, 9]: −0.17
- Cholesterol-free [2, 12]: 1.285
- Complete ([2]; NCI-H292 cells, complete media): 0.839
- Difference [2, 13]: −0.45

Molecule: O=C(O)COC(=O)Cc1ccccc1Nc1c(Cl)cccc1Cl [Aceclofenac]
- Cholesterol-free media + simvastatin (0.04 μM) [1, 7]: 1.455
- Complete Media [1, 8]: 1.329
- Difference [1, 9]: −0.13
- Cholesterol-free [2, 4]: 0.9513
- Complete [2, 5]: 1.14
- Difference [2, 6]: 0.19

Molecule: CC1CS(=O)(=O)CCN1/N=C/c1ccc([N+](=O)[O-])o1 (stereo not shown) [Nifurtimox]
- Cholesterol-free media + simvastatin (0.04 μM) [1, 10]: 1.357
- Complete Media [1, 11]: 1.111
- Difference [1, 9]: −0.25
- Cholesterol-free [2, 12]: 1.443
- Complete ([2]; NCI-H292 cells, complete media): 1.102
- Difference [2, 13]: −0.34

Molecule: C[N+](C)(C)C[C@H](O)CC(=O)[O-].Cl [L-Carnitine (hydrochloride)]
- Cholesterol-free media + simvastatin (0.04 μM) [1, 14]: 0.7755
- Complete Media [1, 15]: 0.7998
- Difference [1, 16]: 0.02
- Cholesterol-free [2, 12]: 1.478
- Difference [2, 17]: −0.31

Molecule: N#Cc1ccc2[nH]cc(CCCCN3CCN(c4ccc5oc(C(N)=O)cc5c4)CC3)c2c1 [Vilazodone (Hydrochloride)]
- Cholesterol-free media + simvastatin (0.04 μM) [1, 7]: 0.5785
- Complete Media [1, 8]: 0.8037
- Difference [1, 18]: 0.23
- Cholesterol-free [2, 12]: 1.019
- Complete ([2]; NCI-H292 cells, complete media): 0.6984
- Difference [2, 13]: −0.32

Molecule: NS(=O)(=O)Cc1noc2ccccc12 [Zonisamide]
- Cholesterol-free media + simvastatin (0.04 μM) [1, 10]: 1.285
- Complete Media [1, 11]: 1.066
- Difference [1, 9]: −0.22
- Difference [2, 19]: −0.51
- Complete [2, 20]: 1.109

Molecule: Cc1cccc(Nc2ccccc2C(=O)O)c1C [Mefenamic acid]
- Cholesterol-free media + simvastatin (0.04 μM) [1, 7]: 1.014
- Complete Media [1, 8]: 0.8951
- Difference [1, 9]: −0.12
- Difference [2, 19]: −0.58
- Cholesterol-free [2, 21]: 2.136
- Complete [2, 20]: 1.551

Molecule: CC(=O)O.CN1C(=O)C[C@@H](C(=O)N[C@@H](Cc2cnc[nH]2)C(=O)N2CCC[C@H]2C(N)=O)NC1=O [Taltirelin (acetate)]
- Cholesterol-free media + simvastatin (0.04 μM) [1, 7]: 1.154
- Complete Media [1, 8]: 1.062
- Difference [1, 22]: −0.09
- Difference [2, 23]: −0.12
- Cholesterol-free [2, 24]: 1.092
- Complete [2, 8]: 0.9679

Molecule: CC[C@@H]([C@H](C)O)n1ncn(-c2ccc(N3CCN(c4ccc(OC[C@@H]5CO[C@@](Cn6cncn6)(c6ccc(F)cc6F)C5)cc4)CC3)cc2)c1=O [Posaconazole]
- Cholesterol-free media + simvastatin (0.04 μM) [1, 7]: 1.5
- Complete Media [1, 8]: 1.904
- Difference [1, 18]: 0.40
- Difference [2, 19]: −0.60
- Cholesterol-free [2, 21]: 1.481
- Complete [2, 20]: 0.8852

Molecule: Flecainide (acetate)
- Cholesterol-free media + simvastatin (0.04 μM) [1, 7]: 1.399
- Complete Media [1, 8]: 2.119
- Difference [1, 18]: 0.72
- Cholesterol-free [2, 4]: 0.7015
- Complete [2, 5]: 1.125
- Difference [2, 6]: 0.42

Molecule: CN[C@H](CC(C)C)C(=O)N[C@H]1C(=O)N[C@@H](CC(N)=O)C(=O)N[C@H]2C(=O)N[C@H]3C(=O)N[C@H](C(=O)N[C@H](C(=O)O)c4cc(O)cc(O)c4-c4cc3ccc4O)[C@H](O)c3ccc(c(Cl)c3)Oc3cc2cc(c3O[C@@H]2O[C@H](CO)[C@@H](O)[C@H](O)[C@H]2O[C@H]2C[C@](C)(N)[C@H](O)[C@H](C)O2)Oc2ccc(cc2Cl)[C@H]1O [Vancomycin (hydrochloride)]
- Cholesterol-free media + simvastatin (0.04 μM) [1]: 0.8152
- Complete Media [1]: 0.7422
- Difference [1]: −0.07
- Cholesterol-free [2]: 0.8305
- Complete [2]: 0.7537
- Difference [2]: −0.08

Molecule: Dihydroergotamine (mesylate)
- Complete Media [1, 11]: 0.9713
- Difference [1, 22]: −0.18
- Difference [2, 23]: −0.20
- Cholesterol-free [2, 12]: 1.021
- Complete ([2]; NCI-H292 cells, complete media): 0.8213

Molecule: Dihydroergocristine (mesylate)
- Cholesterol-free media + simvastatin (0.04 μM) [1, 7]: 1.12
- Complete Media [1, 8]: 1.011
- Difference [1, 22]: −0.11
- Difference [2, 23]: −0.17

Molecule: C[C@H]1C[C@@H]2[C@H]([C@@H](O)C[C@@]3(C)[C@H]2CC[C@]3(O)C(=O)COC(=O)CCC(=O)[O-])[C@@]2(C)C=CC(=O)C=C12.[Na+]
- Cholesterol-free media + simvastatin (0.04 μM) [1, 7]: 0.7536
- Complete Media [1, 8]: 0.682
- Difference [1, 9]: −0.07
- Difference [2, 25]: 0.02
- Cholesterol-free [2, 4]: 0.6071
- Complete [2, 5]: 0.6313

Molecule: CCCOc1ccc(C(=O)OCCN(CC)CC)cc1N [Proparacaine (Hydrochloride)]
- Cholesterol-free media + simvastatin (0.04 μM) [1, 7]: 0.544
- Complete Media [1, 8]: 1.021
- Difference [1, 18]: 0.48
- Cholesterol-free [2, 12]: 1.255
- Complete ([2]; NCI-H292 cells, complete media): 0.8769
- Difference [2, 13]: −0.38

Molecule: CCCCN(CCCC)CC(O)c1cc(Cl)cc2c1-c1ccc(Cl)cc1/C2=C/c1ccc(Cl)cc1 (stereo not shown) [Lumefantrine]
- Cholesterol-free media + simvastatin (0.04 μM) [1, 26]: 0.8537
- Complete Media [1, 27]: 0.9184
- Difference [1, 18]: 0.06
- Cholesterol-free [2, 4]: 0.9552
- Difference [2, 6]: 0.22

Molecule: COc1ccccc1N1CCN(CCCNc2cc(=O)n(C)c(=O)n2C)CC1 [Urapidil]
- Cholesterol-free media + simvastatin (0.04 μM) [1, 7]: 1.097
- Complete Media [1, 8]: 1.271
- Difference [1, 18]: 0.17
- Difference [2, 19]: −0.56
- Cholesterol-free [2, 21]: 1.658
- Complete [2, 20]: 1.095

Molecule: CC1CCC(C(C)C)C(O)C1 (single isomer, unassigned; (-)) [(−)-Menthol]
- Cholesterol-free media + simvastatin (0.04 μM) [1, 28]: 1.223
- Complete Media [1, 29]: 0.8866
- Difference [1, 9]: −0.34
- Cholesterol-free [2, 12]: 1.434
- Complete ([2]; NCI-H292 cells, complete media): 1.115
- Difference [2, 13]: −0.32

Molecule: CCOC(=O)OC(C)OC1=C(C(=O)Nc2ccccn2)N(C)S(=O)(=O)c2ccccc21 (stereo not shown) [Ampiroxicam]
- Cholesterol-free media + simvastatin (0.04 μM) [1, 26]: 1.311
- Complete Media [1, 27]: 1.382
- Difference [1, 18]: 0.07
- Difference [2, 25]: −0.03
- Cholesterol-free [2, 4]: 0.9909
- Complete [2, 5]: 0.9596

Molecule: Tegaserod (maleate)
- Cholesterol-free media + simvastatin (0.04 μM) [1, 14]: 0.7216
- Complete Media [1, 15]: 0.7473
- Difference [1, 16]: 0.03
- Difference [2, 23]: −0.26
- Cholesterol-free [2, 12]: 0.9824
- Complete ([2]; NCI-H292 cells, complete media): 0.7272

Molecule: CC(=O)Nc1c(I)c(NC(C)=O)c(I)c(C(=O)O)c1I [Diatrizoic acid]
- Cholesterol-free media + simvastatin (0.04 μM) [1, 7]: 1.834
- Difference [1, 3]: −1.00
- Difference [2, 30]: −0.07
- Cholesterol-free [2, 24]: 1.077
- Complete [2, 8]: 1.004

Molecule: Cc1ccc(S(=O)(=O)NC(=O)NN2CCCCCC2)cc1 [Tolazamide]
- Cholesterol-free media + simvastatin (0.04 μM) [1, 26]: 1.047
- Complete Media [1, 27]: 1.177
- Difference [1, 18]: 0.13
- Difference [2, 19]: −0.50
- Cholesterol-free [2, 21]: 1.412
- Complete [2, 20]: 0.9106

Molecule: NC(=O)C[C@H](N)C(=O)O [L-Asparagine]
- Cholesterol-free media + simvastatin (0.04 μM) [1, 26]: 0.6588
- Complete Media [1, 27]: 0.704
- Difference [1, 18]: 0.05
- Difference [2, 25]: −0.27
- Cholesterol-free [2, 12]: 1.71
- Complete ([2]; NCI-H292 cells, complete media): 1.437

Molecule: COc1ccc2[n-]c([S+]([O-])Cc3ncc(C)c(OC)c3C)nc2c1.COc1ccc2[n-]c([S+]([O-])Cc3ncc(C)c(OC)c3C)nc2c1.[Mg+2] (stereo not shown) [Esomeprazole magnesium]
- Cholesterol-free media + simvastatin (0.04 μM) [1, 7]: 0.8343
- Complete Media [1, 8]: 1.003
- Difference [1, 16]: 0.17
- Cholesterol-free [2, 4]: 0.6797
- Difference [2, 17]: 0.50

Molecule: Cc1cccc(C)c1N(CC(=O)Nc1ccc(-c2ncon2)cc1)C(=O)C1CCS(=O)(=O)CC1 [Amenamevir]
- Cholesterol-free media + simvastatin (0.04 μM) [1, 7]: 0.9047
- Complete Media [1, 8]: 1.06
- Difference [1, 18]: 0.16
- Difference [2, 30]: −0.08
- Cholesterol-free [2, 24]: 0.9508
- Complete [2, 8]: 0.8718

Molecule: NC[C@H]1O[C@H](O[C@H]2[C@H](O[C@@H]3O[C@H](CO)[C@@H](O)[C@H]3O)[C@@H](O)[C@H](N)C[C@@H]2N)[C@H](N)[C@@H](O)[C@@H]1O.O=S(=O)(O)O [Ribostamycin (sulfate)]
- Cholesterol-free media + simvastatin (0.04 μM) [1, 28]: 1.833
- Complete Media [1, 29]: 1.478
- Difference [1, 9]: −0.36
- Difference [2, 25]: −0.22
- Cholesterol-free [2, 12]: 1.714
- Complete ([2]; NCI-H292 cells, complete media): 1.495
